Biological target: T1, SHV-1 β-lactamase (Klebsiella pneumoniae, UniProt P0AD64)
T1 construct: gene bla
Experiment: X-ray crystal structure at […] Å (soak); Ki by direct competition kinetics
Assay type: biochemical

T1 sequence (P0AD64 22-286): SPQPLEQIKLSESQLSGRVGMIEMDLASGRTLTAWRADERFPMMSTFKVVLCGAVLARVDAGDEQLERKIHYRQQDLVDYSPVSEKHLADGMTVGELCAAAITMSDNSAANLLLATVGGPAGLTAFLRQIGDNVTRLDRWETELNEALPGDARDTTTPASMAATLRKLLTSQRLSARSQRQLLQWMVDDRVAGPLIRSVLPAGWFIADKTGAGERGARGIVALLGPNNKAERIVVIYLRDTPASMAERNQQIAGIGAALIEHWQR

Question: With `C[C@]1(COC(=O)Cc2ccccc2)[C@H](C(=O)O)N2C(=O)/C(=C/c3ccccn3)[C@H]2S1(=O)=O` [SA1-204] as the molecule, how does the Ki read?
Answer: The Ki was 42 ± 4 nM.

Source: article PMC3493512, “Structures of SHV-1 β-Lactamase with Penem and Penam Sulfone Inhibitors That Form Cyclic Intermediates Stabilized by Carbonyl Conjugation” (PLoS ONE, 2012)
